Measured values published in the supplement of paper PMC12076712.

Key:
Assay in all cases: pIC50, kinobeads binding competition
Settings in all cases: cell material: Jurkat lysate
EPHB2 = biological target: T1, EPHB2 (UniProt P29323)
T1 sequence (whole entry): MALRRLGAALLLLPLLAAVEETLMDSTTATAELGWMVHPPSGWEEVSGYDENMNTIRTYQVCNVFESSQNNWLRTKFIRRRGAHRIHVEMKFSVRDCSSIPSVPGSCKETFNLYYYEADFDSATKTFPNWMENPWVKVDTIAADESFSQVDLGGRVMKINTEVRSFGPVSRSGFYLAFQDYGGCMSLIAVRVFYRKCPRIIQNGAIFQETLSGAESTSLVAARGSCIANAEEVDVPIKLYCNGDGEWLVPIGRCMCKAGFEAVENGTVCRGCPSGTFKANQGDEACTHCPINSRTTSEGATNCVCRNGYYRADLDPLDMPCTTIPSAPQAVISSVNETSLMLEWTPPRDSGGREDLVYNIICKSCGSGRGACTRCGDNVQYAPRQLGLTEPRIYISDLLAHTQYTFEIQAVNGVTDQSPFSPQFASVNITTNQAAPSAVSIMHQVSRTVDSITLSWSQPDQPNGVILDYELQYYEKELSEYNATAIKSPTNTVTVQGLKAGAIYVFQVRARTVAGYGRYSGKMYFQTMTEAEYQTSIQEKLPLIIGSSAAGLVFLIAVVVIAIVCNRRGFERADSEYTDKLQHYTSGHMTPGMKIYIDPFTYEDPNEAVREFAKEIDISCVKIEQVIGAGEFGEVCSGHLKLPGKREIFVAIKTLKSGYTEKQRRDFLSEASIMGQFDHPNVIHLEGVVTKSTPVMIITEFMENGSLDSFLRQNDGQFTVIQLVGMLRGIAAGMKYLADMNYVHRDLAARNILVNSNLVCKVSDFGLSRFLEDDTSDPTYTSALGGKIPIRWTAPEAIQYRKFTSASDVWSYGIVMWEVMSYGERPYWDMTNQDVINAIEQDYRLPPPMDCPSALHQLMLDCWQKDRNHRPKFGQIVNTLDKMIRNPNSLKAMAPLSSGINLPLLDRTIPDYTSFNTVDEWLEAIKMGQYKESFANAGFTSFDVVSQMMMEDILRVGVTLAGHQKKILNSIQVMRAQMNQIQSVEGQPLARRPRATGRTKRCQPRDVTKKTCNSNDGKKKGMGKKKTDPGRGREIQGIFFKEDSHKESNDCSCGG

UniProt P17252 = biological target: UniProt P17252
UniProt O00444 = biological target: T2, UniProt O00444
T2 sequence (whole entry): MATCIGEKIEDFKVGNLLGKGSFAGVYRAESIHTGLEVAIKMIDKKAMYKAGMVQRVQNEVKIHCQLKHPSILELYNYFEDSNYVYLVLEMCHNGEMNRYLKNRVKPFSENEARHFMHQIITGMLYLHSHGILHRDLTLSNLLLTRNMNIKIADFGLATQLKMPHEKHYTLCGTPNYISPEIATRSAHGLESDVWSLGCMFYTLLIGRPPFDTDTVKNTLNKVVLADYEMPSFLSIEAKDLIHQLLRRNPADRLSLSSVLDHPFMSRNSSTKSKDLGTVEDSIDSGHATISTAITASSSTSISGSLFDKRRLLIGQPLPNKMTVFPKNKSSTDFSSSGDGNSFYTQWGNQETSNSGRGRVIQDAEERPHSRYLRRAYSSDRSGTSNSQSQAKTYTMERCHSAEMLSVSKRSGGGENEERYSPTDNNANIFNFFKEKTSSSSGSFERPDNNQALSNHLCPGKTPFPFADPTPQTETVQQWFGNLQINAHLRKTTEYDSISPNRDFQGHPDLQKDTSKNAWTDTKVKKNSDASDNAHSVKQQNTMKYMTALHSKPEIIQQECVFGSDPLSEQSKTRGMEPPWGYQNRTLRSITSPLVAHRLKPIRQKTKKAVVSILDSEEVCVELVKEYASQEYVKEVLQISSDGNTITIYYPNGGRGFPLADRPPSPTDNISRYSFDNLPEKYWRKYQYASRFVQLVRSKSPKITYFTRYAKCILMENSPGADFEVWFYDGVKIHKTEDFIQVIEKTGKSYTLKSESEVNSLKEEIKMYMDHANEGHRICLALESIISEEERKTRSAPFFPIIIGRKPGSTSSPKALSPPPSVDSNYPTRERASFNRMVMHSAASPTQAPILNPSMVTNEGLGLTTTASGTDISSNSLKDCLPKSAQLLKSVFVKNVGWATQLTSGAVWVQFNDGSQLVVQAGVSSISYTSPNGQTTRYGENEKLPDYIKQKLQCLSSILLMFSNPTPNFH

UniProt P78527 = biological target: UniProt P78527
PRKD2 = biological target: T3, PRKD2 (UniProt Q9BZL6)
T3 sequence (whole entry): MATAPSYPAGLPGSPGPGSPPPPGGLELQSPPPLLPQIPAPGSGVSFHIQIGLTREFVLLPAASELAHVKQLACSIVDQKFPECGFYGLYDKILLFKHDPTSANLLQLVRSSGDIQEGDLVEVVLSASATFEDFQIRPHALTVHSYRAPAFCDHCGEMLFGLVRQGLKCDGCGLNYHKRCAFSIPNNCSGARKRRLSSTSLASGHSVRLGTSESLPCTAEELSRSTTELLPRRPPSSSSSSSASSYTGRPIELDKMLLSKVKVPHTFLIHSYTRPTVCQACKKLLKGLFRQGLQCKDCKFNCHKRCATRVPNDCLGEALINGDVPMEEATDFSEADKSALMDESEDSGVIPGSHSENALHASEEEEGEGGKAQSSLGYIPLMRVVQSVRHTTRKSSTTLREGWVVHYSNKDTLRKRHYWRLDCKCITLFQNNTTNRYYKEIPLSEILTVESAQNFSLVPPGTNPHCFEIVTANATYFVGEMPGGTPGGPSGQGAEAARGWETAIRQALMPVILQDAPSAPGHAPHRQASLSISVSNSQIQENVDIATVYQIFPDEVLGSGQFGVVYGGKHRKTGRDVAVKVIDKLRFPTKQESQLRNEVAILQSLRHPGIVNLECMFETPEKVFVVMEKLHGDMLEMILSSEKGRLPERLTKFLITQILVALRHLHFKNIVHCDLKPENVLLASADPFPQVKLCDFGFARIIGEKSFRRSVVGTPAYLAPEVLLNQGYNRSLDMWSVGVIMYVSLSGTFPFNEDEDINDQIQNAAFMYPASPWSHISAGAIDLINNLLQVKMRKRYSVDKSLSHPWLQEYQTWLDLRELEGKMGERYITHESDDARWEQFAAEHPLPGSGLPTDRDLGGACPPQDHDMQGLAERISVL

PAK1 = PAK1 (UniProt Q13153)
Sequence of PAK1 (Q13153 whole entry): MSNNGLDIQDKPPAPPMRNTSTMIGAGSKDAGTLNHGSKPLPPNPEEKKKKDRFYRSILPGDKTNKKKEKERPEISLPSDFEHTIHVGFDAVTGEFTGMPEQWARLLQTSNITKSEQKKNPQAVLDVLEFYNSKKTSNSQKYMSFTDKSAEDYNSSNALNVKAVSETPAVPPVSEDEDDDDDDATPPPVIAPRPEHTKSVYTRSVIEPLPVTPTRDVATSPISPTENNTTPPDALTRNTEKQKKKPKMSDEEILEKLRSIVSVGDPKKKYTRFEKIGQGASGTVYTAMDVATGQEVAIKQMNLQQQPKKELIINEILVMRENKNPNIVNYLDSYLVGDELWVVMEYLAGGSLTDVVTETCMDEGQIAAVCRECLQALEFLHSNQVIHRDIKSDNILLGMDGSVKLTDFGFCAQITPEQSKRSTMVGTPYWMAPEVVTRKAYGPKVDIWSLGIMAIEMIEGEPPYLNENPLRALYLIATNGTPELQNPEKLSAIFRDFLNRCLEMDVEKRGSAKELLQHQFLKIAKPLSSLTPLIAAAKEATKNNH

UniProt Q16513 = biological target: UniProt Q16513
Sequence of UniProt Q16513 (Q16513 whole entry, looked up): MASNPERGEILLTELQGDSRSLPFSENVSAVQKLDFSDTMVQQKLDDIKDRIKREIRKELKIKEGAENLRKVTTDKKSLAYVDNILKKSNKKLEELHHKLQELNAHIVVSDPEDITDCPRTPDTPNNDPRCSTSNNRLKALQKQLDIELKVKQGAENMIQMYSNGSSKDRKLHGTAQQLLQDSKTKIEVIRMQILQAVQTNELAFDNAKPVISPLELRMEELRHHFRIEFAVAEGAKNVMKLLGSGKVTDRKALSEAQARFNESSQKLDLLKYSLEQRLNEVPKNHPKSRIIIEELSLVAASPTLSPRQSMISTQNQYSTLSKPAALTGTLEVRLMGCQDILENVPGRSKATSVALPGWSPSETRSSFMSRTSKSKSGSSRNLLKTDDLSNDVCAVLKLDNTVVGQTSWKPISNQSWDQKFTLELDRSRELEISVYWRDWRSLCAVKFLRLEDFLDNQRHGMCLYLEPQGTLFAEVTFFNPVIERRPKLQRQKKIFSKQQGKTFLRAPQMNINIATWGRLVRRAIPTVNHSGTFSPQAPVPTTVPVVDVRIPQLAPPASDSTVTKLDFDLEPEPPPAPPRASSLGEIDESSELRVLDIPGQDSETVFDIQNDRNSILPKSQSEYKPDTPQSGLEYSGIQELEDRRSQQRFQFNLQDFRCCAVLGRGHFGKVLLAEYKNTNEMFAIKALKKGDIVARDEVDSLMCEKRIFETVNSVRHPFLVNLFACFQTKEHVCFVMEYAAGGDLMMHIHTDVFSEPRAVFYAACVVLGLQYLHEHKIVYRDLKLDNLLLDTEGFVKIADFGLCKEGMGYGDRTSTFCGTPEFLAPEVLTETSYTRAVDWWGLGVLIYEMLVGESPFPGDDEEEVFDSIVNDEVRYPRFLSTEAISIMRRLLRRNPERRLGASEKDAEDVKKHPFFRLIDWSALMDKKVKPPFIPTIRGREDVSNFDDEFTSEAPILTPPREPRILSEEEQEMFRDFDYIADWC

Measured: pIC50

CCc1cnn2c(NCc3ccc[n+]([O-])c3)cc(N3CCCC[C@H]3CCO)nc12 [dinaciclib]
< 4.52: EPHB2 | UniProt P17252 | UniProt O00444 | UniProt P78527 | PRKD2 | PAK1 | UniProt Q16513
